Test results taken from patent publication US9642821B2, “MiR-182 in the diagnosis and treatment of cancer” (Dana-Farber Cancer Institute, Inc., priority 2010, dated 2017).
“Also recorded” adds a separate entry of the source.

What was measured:
Assay type in all cases: cell-based
[1] = system: BRCA1 3′UTR-luciferase reporter; test: Luciferase reporter assay with BRCA1 3′UTR in HeLa cells
Experimental: The wild type (WT) and mutated (M) miR-182 recognition elements of 3′UTR-BRCA1 were annealed (see below) and cloned in expression vector, pMIR-REPORT (Ambion, Austin, Tex.) downstream to Firefly Luciferase.
Hela cells were co-transfected in a 24 well tissue culture plate with 10 nM control mimic (Ambion, Austin, Tex.) or miR-182 mimic (Ambion, Austin, Tex.), 0.2 μg 3′UTR-BRCA1-WT or 3′UTR-BRCA1-M, and 0.2 μg Renilla luciferase in pRL-TK (Promega, Madison, Wis.) vector using lipofectamine 2000 as described in manufacture's manual. Cells were harvested on day 2 and the luciferase activity was assayed with the Dual-Luciferase Assay System (Promega, Madison, Wis.) and a Synergy HT microplate reader (BioTek, Winooski, Vt.) as described in manufacture's manual.

MDA-MB231 cells = test: Single-cell gel electrophoresis (comet) assay after irradiation, MDA-MB231; conditions: MDA-MB231, 18 h repair, vs control mimic
Experimental: 21NT cells (0.35×10^6 cells/well in 6 well tissue culture plate) were transfected with 100 nM control or miR-182 antagomir expression vector (Ambion, Austin, Tex.) whereas MDA-MB231 (0.35×10^6 cells/well on 6 well plate) were transfected with 10 nM control or miR-182 mimic expression vector (Ambion, Austin, Tex.) using Lipofectamine 2000. At day 3 after transfection, cells were irradiated (0, 2, 4 and 6 Gy) and allowed to recover for 18 hours prior to analysis. The single cell comet assays was carried out according manufacturer's instructions (Trevigen, Gaithersburg, Md.). Briefly, treated or untreated cells were collected, resuspended in ice cold PBS at 10^5 cells/ml, mixed with low-melting point agarose (1:10 ratio) and spread on frosted glass slides. After the agarose solidified, the slides were placed in lysis buffer and then in alkaline solutions. […] Nuclei were visualized using epifluorescent illumination on a Zeiss microscope and images analyzed with National Institutes of Health ImageJ software (rsbweb.nih.gov/ij/). DNA damage was quantified for 70-100 cells for each experimental condition by determining the DNA in the comet tail using the software Comet Score (TriTek, Sumerduck, Va.).

U2OS cells = test: G2/M checkpoint, phospho-H3 flow cytometry after IR; conditions: 5 Gy IR, nocodazole, P-H3 staining
Experimental: U2OS cells (0.35×10^6 cells/well) were transfected with 10 nM control mimic or miR-182 mimic and, in rescue experiments, co-transfected with 1 μg of BRCA1 (lacking 3′UTR) expression construct using Lipofectamine 2000. After 2 days, cells were seeded into the wells of 12-well tissue culture plates, incubated overnight, irradiated (5 Gy) and released in nocadozole (200 ng/ml) containing media after 2 hours. The next day the cells were stained with primary Phospho-H3 (Ser10) antibodies 1:100 dilution (Upstate Biotechnology, Lake Placid, N.Y.) and FITC-labeled secondary antibodies 1:50 dilution (Santa Cruz Biotechnology, Santa Cruz, Calif.) and analyzed by flow cytometry.

Substance: miR-182: microRNA with sequence 5′ UUUGGCAAUGGUAGAACUCACACU 3′ (SEQ ID NO:1); given as mimic (Ambion) or expression vector (UUUGGCAAUGGUAGAACUCACACU; listed as RNA, chemistry not given here; listed as Homo sapiens)
- effect of miR-182 on luciferase with mutated miR-182 recognition sites (BRCA1-M reporter) [1]: significantly reduced the effect; also recorded: rescued this suppression
- reduction of luciferase activity, wildtype BRCA1-reporter ([1]; 10 nM mimic, vs control mimic): more than 2 fold
- luciferase activity of BRCA1-WT reporter ([1]; normalized to Renilla, p<0.001): suppressed luciferase activity
- residual DNA damage (unrepaired DSBs) after irradiation (MDA-MB231 cells): significantly higher residual DNA damage
- residual DNA damage (unrepaired DSBs) after irradiation (MDA-MB231 cells; listed as 182 mimic): significantly altered
- mitotic cells post-DNA damage (G2/M checkpoint) (U2OS cells): significant increase in mitotic cells; also recorded: impacts the G2/M checkpoint
